Experimental data from patent US20230183237A1, “COMPETITIVE AND NONCOMPETITIVE INHIBITORS OF THE MUSCARINIC ACETYLCHOLINE RECEPTOR M5” (Vanderbilt University, priority 2020, published 2023).
Read-outs that look alike come from different tables or passages of the source.

Target: T1, hM5 (Homo sapiens, UniProt P08912)
T1 construct: expressed in transfected cells
T1 sequence (P08912 1-532): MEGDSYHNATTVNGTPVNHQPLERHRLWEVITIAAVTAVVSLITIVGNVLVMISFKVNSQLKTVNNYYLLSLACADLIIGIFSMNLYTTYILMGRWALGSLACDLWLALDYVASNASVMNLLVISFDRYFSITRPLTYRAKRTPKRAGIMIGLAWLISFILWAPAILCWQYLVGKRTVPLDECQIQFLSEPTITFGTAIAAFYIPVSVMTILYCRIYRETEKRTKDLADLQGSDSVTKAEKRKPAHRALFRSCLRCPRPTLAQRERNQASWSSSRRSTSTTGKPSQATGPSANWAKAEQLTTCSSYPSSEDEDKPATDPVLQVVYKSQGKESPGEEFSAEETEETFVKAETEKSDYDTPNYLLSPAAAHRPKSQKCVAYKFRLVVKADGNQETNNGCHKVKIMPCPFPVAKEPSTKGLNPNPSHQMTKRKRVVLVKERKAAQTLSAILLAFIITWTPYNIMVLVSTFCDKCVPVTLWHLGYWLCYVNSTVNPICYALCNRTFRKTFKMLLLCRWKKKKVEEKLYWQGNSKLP
Assay: Calcium mobilization concentration-response (IC50 vs EC80 acetylcholine), CHO hM5
Format: cell-based
Details: CELL LINE hM5, read-out: IC50
Method in brief: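 CHO cells stably expressing hM5, dye-loaded, in HBSS/20 mM HEPES/2.5 mM probenecid, pH 7.4. Compounds were pre-incubated 140 s before an EC80 acetylcholine challenge, with calcium flux read kinetically.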

[1] = calcium mobilization, EC80 acetylcholine addition

Row | IC50 (vs EC80 acetylcholine) [nM] | IC50 [1] [nM] | Compound
1 | 812 |  | Cc1cnccc1C1CCN(S(=O)(=O)c2cnn(C)c2C)CC1 [Compound 431, 4-(1-((1,5-dimethyl-1H-pyrazol-4-yl)sulfonyl)piperidin-4-yl)-3-methylpyridine]
2 | 1460 |  | CO[C@@H]1CN(S(=O)(=O)c2cnn3c2OCCC3)CC[C@H]1c1cn2ncnc2cc1C (racemic) [Compound 414, (rac)-3-((trans-3-methoxy-4-(7-methyl-[1,2,4]triazolo[1,5-a]pyridin-6-yl)piperidin-1-yl)sulfonyl)-6,7-dihydro-5H-pyrazolo[5,1-b][1,3]oxazine]
3 |  | 113 | O=S(=O)(c1cnn2c1OCCC2)N1CCC(c2ccc3ncnn3c2)CC1 [Compound 387, 3-((4-([1,2,4]triazolo[1,5-a]pyridin-6-yl)piperidin-1-yl)sulfonyl)-6,7-dihydro-5H-pyrazolo[5,1-b][1,3]oxazine]
4 |  | 384 | Cn1ncc(S(=O)(=O)N2CCC(c3ccc4c(c3)OCO4)CC2)c1Cl [Compound 357, 4-(benzo[d][1,3]dioxol-5-yl)-1-((5-chloro-1-methyl-1H-pyrazol-4-yl)sulfonyl)piperidine]
5 |  | 51 | C=Cc1cc2ncnn2cc1C1=CCN(S(=O)(=O)c2cnn(C)c2C)CC1 [Compound 147, 6-(1-((1,5-dimethyl-1H-pyrazol-4-yl)sulfonyl)-1,2,3,6-tetrahydropyridin-4-yl)-7-vinyl-[1,2,4]triazolo[1,5-a]pyridine]
6 |  | > 10000 | O=S(=O)(c1ccc2c(c1)CCO2)N1CCC(c2ccc3c(c2)OCO3)CC1 [Compound 359, 4-(benzo[d][1,3]dioxol-5-yl)-1-((2,3-dihydrobenzofuran-5-yl)sulfonyl)piperidine]
7 |  | 123 | Cc1cc2nccn2nc1C1CCN(S(=O)(=O)c2cnc(C)n2C)CC1 [Compound 252, 6-(1-((1,2-dimethyl-1H-imidazol-5-yl)sulfonyl)piperidin-4-yl)-7-methylimidazo[1,2-b]pyridazine]
8 |  | > 10000 | Cc1cc2nccn2nc1C1CCN(S(=O)(=O)c2ccc3c(c2)OCO3)CC1 [Compound 40, 6-(1-(benzo[d][1,3]dioxol-5-ylsulfonyl)piperidin-4-yl)-7-methylimidazo[1,2-b]pyridazine]
9 | 22 |  | [2H]C([2H])([2H])Oc1c(S(=O)(=O)N2CCC(c3cn4ncnc4cc3Cl)CC2)cnn1C [Compound 613, 7-chloro-6-(1-((5-(methoxy-d3)-1-methyl-1H-pyrazol-4-yl)sulfonyl)piperidin-4-yl)-[1,2,4]triazolo[1,5-a]pyridine]
10 |  | 17 | Cc1cc2c(cc1C1CCN(S(=O)(=O)c3cnn(C)c3C)CC1)OCO2 [Compound 371, 1-((1,5-dimethyl-1H-pyrazol-4-yl)sulfonyl)-4-(6-methylbenzo[d][1,3]dioxol-5-yl)piperidine]
11 |  | > 10000 | Cc1cc2ncnn2cc1C1CCN(S(=O)(=O)c2cn(-c3ccccc3)nc2C)CC1 [Compound 102, 7-methyl-6-(1-((3-methyl-1-phenyl-1H-pyrazol-4-yl)sulfonyl)piperidin-4-yl)-[1,2,4]triazolo[1,5-a]pyridine]
12 |  | 2560 | O=S(=O)(c1ccc2ncccc2c1)N1CCC(c2cc3cc[nH]c3nn2)CC1 [Compound 23, 6-((4-(7H-pyrrolo[2,3-c]pyridazin-3-yl)piperidin-1-yl)sulfonyl)quinoline]
13 | 736 |  | Cc1cc2ncnn2cc1C1CCN(S(=O)(=O)c2cnn(C)c2CNC(=O)c2ccccn2)CC1 [Compound 554, N-((1-Methyl-4-((4-(7-methyl-[1,2,4]triazolol[1,5-a]pyridin-6-yl)piperidin-1-yl)sulfonyl)-1H-pyrazol-5-yl)methyl)picolinamide]
14 |  | 974 | Cc1cc2ncnn2nc1C1=CCN(S(=O)(=O)c2cnn(C)c2C)CC1 [Compound 169, 6-(1-((1,5-dimethyl-1H-pyrazol-4-yl)sulfonyl)-1,2,3,6-tetrahydropyridin-4-yl)-7-methyl-[1,2,4]triazolo[1,5-b]pyridazine]
15 | 496 |  | Cc1ncc(S(=O)(=O)N2CCC(c3cn4ncnc4cc3C(F)(F)F)CC2)o1 [Compound 498, 2-methyl-5-((4-(7-(trifluoromethyl)-[1,2,4]triazolo[1,5-a]pyridin-6-yl)piperidin-1-yl)sulfonyl)oxazole]
16 | 77 |  | CCc1cc2ncnn2cc1C1CCN(S(=O)(=O)c2cnn(C)c2OC)CC1 [Compound 584, 7-ethyl-6-(1-((5-methoxy-1-methyl-1H-pyrazol-4-yl)sulfonyl)piperidin-4-yl)-[1,2,4]triazolo[1,5-a]pyridine]
17 |  | > 10000 | Cc1c(S(=O)(=O)N2CCC(c3cn4ncnc4cc3F)CC2)cnn1C(F)F [Compound 230, 6-(1-((1-(difluoromethyl)-5-methyl-1H-pyrazol-4-yl)sulfonyl)piperidin-4-yl)-7-fluoro-[1,2,4]triazolo[1,5-a]pyridine]

Row | IC50 (vs EC80 acetylcholine) [nM] | IC50 [1] [nM] | Compound
18 |  | > 10000 | Cc1c(S(=O)(=O)N2CCC(c3ccc4ncnn4c3C)CC2)cnn1C [Compound 198, 6-(1-((1,5-dimethyl-1H-pyrazol-4-yl)sulfonyl)piperidin-4-yl)-5-methyl-[1,2,4]triazolo[1,5-a]pyridine]
19 |  | 2600 | Cc1nc(C)c(S(=O)(=O)N2CCC(c3nn4ccnc4cc3C)CC2)s1 [Compound 249, 2,4-dimethyl-5-((4-(7-methylimidazo[1,2-b]pyridazin-6-yl)piperidin-1-yl)sulfonyl)thiazole]
20 |  | > 10000 | Cc1nc2cc(C)c(C3CCN(S(=O)(=O)c4cn(C)nc4C)CC3)cn2n1 [Compound 79, 6-(1-((1,3-dimethyl-1H-pyrazol-4-yl)sulfonyl)piperidin-4-yl)-2,7-dimethyl-[1,2,4]triazolo[1,5-a]pyridine]
21 | 34 |  | O=S(=O)(c1cnc2sccn12)N1CCC(c2cn3ncnc3cc2C(F)F)CC1 [Compound 515, 5-((4-(7-(difluoromethyl)-[1,2,4]triazolo[1,5-a]pyridin-6-yl)piperidin-1-yl)sulfonyl)imidazo[2,1-b]thiazole]
22 |  | 306 | Cc1c(S(=O)(=O)N2CCC(c3ccc4c(c3)OCO4)CC2)cnn1C [Compound 356, 4-(benzo[d][1,3]dioxol-5-yl)-1-((1,5-dimethyl-1H-pyrazol-4-yl)sulfonyl)piperidine]
23 |  | 284 | Cc1nn(C)c(C(F)(F)F)c1S(=O)(=O)N1CCC(c2cn3ncnc3c(F)c2C)CC1 [Compound 266, 6-(1-((1,3-dimethyl-5-(trifluoromethyl)-1H-pyrazol-4-yl)sulfonyl)piperidin-4-yl)-8-fluoro-7-methyl-[1,2,4]triazolo[1,5-a]pyridine]
24 | 40 |  | [2H]c1nc2cc(Cl)c(C3=CCN(S(=O)(=O)c4cnc(C)o4)CC3)cn2n1 [Compound 610, 5-((4-(7-chloro-[1,2,4]triazolo[1,5-a]pyridin-6-yl-2-d)-3,6-dihydropyridin-1(2H)-yl)sulfonyl)-2-methyloxazole]
25 | 115 |  | CCc1cc2ncnn2cc1C1CCN(S(=O)(=O)c2cnc3sccn23)CC1 [Compound 512, 5-((4-(7-ethyl-[1,2,4]triazolo[1,5-a]pyridin-6-yl)piperidin-1-yl)sulfonyl)imidazo[2,1-b]thiazole]
26 | 1290 |  | Cn1ncc(S(=O)(=O)N2CC=C(c3c4ccccc4nn3C)CC2)c1Cl [Compound 489, 3-(1-((5-chloro-1-methyl-1H-pyrazol-4-yl)sulfonyl)-1,2,3,6-tetrahydropyridin-4-yl)-2-methyl-2H-indazole]
27 |  | 22 | Cc1ncc(S(=O)(=O)N2CCC(c3cn4ncnc4cc3Cl)CC2)n1C [Compound 294, 7-chloro-6-(1-((1,2-dimethyl-1H-imidazol-5-yl)sulfonyl)piperidin-4-yl)-[1,2,4]triazolo[1,5-a]pyridine]
28 |  | 699 | [2H]C1([2H])Oc2ccc(S(=O)(=O)N3CC=C(c4cn5ncnc5cc4C)CC3)cc2C1([2H])[2H] [Compound 72, 6-(1-((2,3-dihydrobenzofuran-5-yl-2,2,3,3-d4)sulfonyl)-1,2,3,6-tetrahydropyridin-4-yl)-7-methyl-[1,2,4]triazolo[1,5-a]pyridine]
29 | 34 |  | Cc1cc2ncccc2cc1C1CCN(S(=O)(=O)c2cnn(C)c2Cl)CC1 [Compound 417, 6-(1-((5-chloro-1-methyl-1H-pyrazol-4-yl)sulfonyl)piperidin-4-yl)-7-methylquinoline]
30 | 3020 |  | Cn1ncc(S(=O)(=O)N2CCC(c3ccc4ncnn4c3)CC2)c1CC#N [Compound 433, 2-(4-((4-([1,2,4]triazolo[1,5-a]pyridin-6-yl)piperidin-1-yl)sulfonyl)-1-methyl-1-pyrazol-5-yl)acetonitrile]
31 |  | 821 | Cc1cc2ncnn2cc1C1CCN(S(=O)(=O)c2cccc3nonc23)CC1 [Compound 168, 4-((4-(7-methyl-[1,2,4]triazolo[1,5-a]pyridin-6-yl)piperidin-1-yl)sulfonyl)benzo[c][1,2,5]oxadiazole]
32 | 804 |  | Cc1cc2ncnn2cc1C1CCN(S(=O)(=O)c2cnn(C)c2-c2scnc2C)CC1 [Compound 598, 4-Methyl-5-(1-methyl-4-((4-(7-methyl-[1,2,4]triazolo[1,5-a]pyridin-6-yl)piperidin-1-yl)sulfonyl)-1H-pyrazo1-5-yl)thiazole]
33 |  | 2000 | O=S(=O)(c1ccc2c(c1)CCO2)N1CCC(c2cc3[nH]ccc3cn2)CC1 [Compound 29, 6-(1-((2,3-dihydrobenzofuran-5-yl)sulfonyl)piperidin-4-yl)-1H-pyrrolo[3,2-c]pyridine]
